According to PMC4792926, “G9a-mediated methylation of ERα links the PHF20/MOF histone acetyltransferase complex to hormonal gene expression” (Nature Communications, 2016):

Legend:
[1] = system: G9a; test: In vitro methylation of ERα peptides by G9a, mass spectrometry; format: biochemical, human; details: 1 μg peptide, pH 8.0, 30 °C, 4 h
[2] = system: G9a; test: In vitro methylation of ERα protein fragments by G9a; format: biochemical, human; details: 2 μg G9a, 2 μg substrate, 3H-S-adenosylmethionine, pH 8.0, 30 °C, 4 h; autoradiography
Source text: Complementary DNA encoding full-length human ERα, G9a, PHF20 and NCOA2 genes were cloned into pENTR3C and subsequently cloned into destination vectors using the Gateway technique (Invitrogen). The destination vectors used in this study include p3Flag and pCAG-Flag (for Flag-tag expression), pCAG-Myc (for Myc-tag expression) and pCAG (for no-tag expression). pERE-Luc Firefly luciferase and pRl-TK Renilla luciferase were used for the reporter assays. For in vitro enzymatic assays, G9a, ERα, ERα fragments and mutants were cloned into pGEX-6P1 (GE Healthcare) to express and purify the proteins as GST-tagged proteins. Point mutations were generated using site-directed mutagenesis (Stratagene). shRNA constructs were purchased from Sigma. The G9a-targeting shRNA sequences used in this study were 5′-[…]-3′, 5′-[…]-3′ and 5′-[…]-3′ and the PHF20-targeting shRNA sequences were 5′-[…]-3′ and 5′-[…]-3′. Peptides were synthesized at the W.M. Keck Facility at Yale University or at CPC-Scientific. Polyclonal anti-dimethylated ERαK235 rabbit sera (CPC Scientific, 1:500) were affinity-purified with an ERαK235me2 peptide and depleted against the corresponding unmethylated peptide. Anti-G9a antibodies were purchased from MBL (D141-3, 1:1,000) and Sigma (G6919, 1:2,000); anti-PHF20 (3934S, 1:1,000) antibody from Cell Signaling; anti-ERα (Sc-503, 1:1,000) and anti-GST (Sc-459, 1:1,000) antibodies from Santa Cruz; anti-FLAG (F-1804, 1:5,000) and anti-tubulin (T8328, 1:5,000) antibodies from Sigma; anti-H4K16ac (07–329, 1:1,000) antibody from Millipore; anti-total H3 (ab1791, 1:5,000) and anti-H3K9me2 (ab1220, 1:1,000) antibodies from Abcam; and streptavidin horseradish peroxidase from Thermo Scientific. 17β-estradiol and the G9a inhibitor BIX-01294 were purchased from Sigma.
The pGEX constructs encoding human G9a, ERα and ERα fragments including AF1 (aa 1–190), DBD (aa 175–250), hinge (aa 251–310), DBD+hinge (aa 175–310), LBD (aa 305–596) and the second Tudor domain of PHF20 (aa 58–148) were expressed in E. coli Rosetta (DE3) pLysS cells. After induction with IPTG (0.5 mM) for 16–18 h at 18 °C, cells were collected by centrifugation at 5,000g, lysed by sonication and purified using Glutathione Sepharose 4B beads (GE Healthcare). […]
Recombinant G9a (2 μg) was incubated with recombinant ERα fragments proteins (2 μg) in methylation assay buffer (50 mM Tris-HCl, pH 8.0, 10% glycerol, 20 mM KCl, 5 mM MgCl2, 1 mM DTT, 1 mM PMSF and 0.1 mM unlabelled or ^3H-labelled S-adenosylmethionine (GE Healthcare)) at 30 °C for 4 h. Reactions were stopped by adding SDS–PAGE sample buffer, and the methylation status was determined by autoradiography or western blotting analysis. […]

[3] = system: PHF20 Tudor; test: 1H,15N HSQC NMR titration of PHF20 Tudor; format: binding, human; details: 0.2 mM 15N-labelled PHF20 Tudor, 25 mM Tris-HCl pH 7.5, 150 mM NaCl, 298 K, 600 MHz
Description: The pGEX constructs encoding human G9a, ERα and ERα fragments including AF1 (aa 1–190), DBD (aa 175–250), hinge (aa 251–310), DBD+hinge (aa 175–310), LBD (aa 305–596) and the second Tudor domain of PHF20 (aa 58–148) were expressed in E. coli Rosetta (DE3) pLysS cells. After induction with IPTG (0.5 mM) for 16–18 h at 18 °C, cells were collected by centrifugation at 5,000g, lysed by sonication and purified using Glutathione Sepharose 4B beads (GE Healthcare). For the NMR titration assays, PHF20 Tudor was expressed in the ^15NH4Cl-supplemented (Sigma) minimal media, and the GST tag was cleaved with PreScission protease, and the cleaved protein was concentrated using Millipore concentrators (Millipore).
The ^1H,^15N HSQC spectra of 0.2 mM uniformly ^15N-labelled PHF20 Tudor (in 25 mM Tris-HCl, pH 7.5 buffer, 150 mM NaCl, 5 mM dithiothreitol and ∼8% D2O) were collected at 298 K on a Varian INOVA 600 MHz spectrometer. Binding was monitored by titrating unmodified ERα and ERαK235me2 peptides (aa 228–239) against the PHF20 Tudor domain. NMR data were processed and analysed with NMRPipe and NMRDraw as previously described. NMR assignments for PHF20 Tudor were taken from the Biological Magnetic Resonance Data Bank (BMRB 17673)[31].

Molecule | methylation by G9a [2] | other results
ERα peptide containing K235: ERα peptide spanning amino acids 227–244, G9a substrate (CTIDKNRRKSCQACRLRK; UniProt P03372 227-244, looked up, fragment) | – | increase in mass on G9a methylation [1]: 28 Da
hinge region: recombinant ERα hinge fragment (aa 251–310) (MKGGIRKDRRGGRMLKHKRQRDDGEGRGEVGSAGDMRAANLWPSPLMIKRSKKNSLALSL; UniProt P03372 251-310, looked up, fragment) | methylated both the DBD and the hinge region | –
peptide containing K303: ERα peptide spanning amino acids 294–313, G9a substrate (SPLMIKRSKKNSLALSLTAD; UniProt P03372 294-313, looked up, fragment) | – | increase in mass on G9a methylation [1]: 14 Da
unmethylated ERα (aa 228–239) peptide: unmodified ERα peptide (aa 228–239) (TIDKNRRKSCQA) | – | chemical shift changes of PHF20 Tudor [3]: no resonance perturbations were observed
DBD and hinge fragment: recombinant ERα fragment DBD+hinge (aa 175–310) (protein, UniProt P03372 175-310, looked up, fragment) AMESAKETRYCAVCNDYASGYHYGVWSCEGCKAFFKRSIQGHNDYMCPATNQCTIDKNRRKSCQACRLRKCYEVGMMKGGIRKDRRGGRMLKHKRQRDDGEGRGEVGSAGDMRAANLWPSPLMIKRSKKNSLALSL | specifically methylated | –
AF-1: recombinant ERα N-terminal activation function domain (aa 1–190) (protein, UniProt P03372 1-190, looked up, fragment) MTMTLHTKASGMALLHQIQGNELEPLNRPQLKIPLERPLGEVYLDSSKPAVYNYPEGAAYEFNAAAAANAQVYGQTGLPYGPGSEAAAFGSNGLGGFPPLNSVSPSPLMLLHPPPQLSPFLQPHGQQVPYYLENEPSGYTVREAGPPAFYRPNSDNRRQGGRERLASTNDKGSMAMESAKETRYCAVCND | not the AF-1 and LBD fragments | –
DBD: recombinant ERα DNA-binding domain (aa 175–250) (protein, UniProt P03372 175-250, looked up, fragment) AMESAKETRYCAVCNDYASGYHYGVWSCEGCKAFFKRSIQGHNDYMCPATNQCTIDKNRRKSCQACRLRKCYEVGM | methylated both the DBD and the hinge region | –
